Test system: DMARD-refractory active RA
Test: Phase 2a trial of masitinib in DMARD-refractory active RA: efficacy (ACR, ACRn, CRP, DAS28)
Type: in vivo, Human
Design: ACRn Mean ± SD / ACRn Median: unit not given here
From the text: The main exclusion criteria were patients with: inadequate bone marrow function, defined as an absolute neutrophil count ≦2.5×10^9/litre, and platelets ≦100×10^9/litre; active current infection, history of infection requiring hospitalisation, history of recurrent infections, or treatment with antibiotics within 2 weeks of screening. Treatment wash-out periods observed prior to entry to the study were: a) DMARD use within 4 weeks; b) five half-lives, or wash-out in accordance for a specific drug, whichever is longer; c) any live (attenuated) vaccines taken within 4 weeks; d) use of more than one NSAID or its dosage change within 4 weeks; e) prednisone or equivalent corticosteroid dosage >10 mg/day or any dosage change within 4 weeks; and f) prednisone or equivalent corticosteroid dosage >20 mg administered via intra-articular injection, bolus intramuscular or intravenous treatment within 4 weeks. Other exclusion criteria included any previous use of recombinant interleukin-1 receptor antagonist (IL1-Ra) and patients who were pregnant or nursing.
Efficacy data are presented using descriptive statistics, contrasting initial dosage groups or according to previous DMARD failure. For comparison of groups according to initial dosage on a continuous variable, Student test (with Satterwhaite correction for unequal variance) or Wilcoxon test were used when normality was not rejected or rejected, respectively (normality determined via the Shapiro-Wilk test). For the same comparison on a qualitative variable, Chi-square or Fisher Exact test (if the Chi-square hypotheses were not filled) were used. The rate of patients achieving the various ACR response variables after 12 weeks of treatment (remission rate) are presented in terms of percentage and number of patients. Patients were assigned to either 3 or 6 mg/kg/day treatment groups based upon a randomisation schedule generated for packaging and labelling by the Biostatistics Section of AB Science. Individual treatment doses to be administered were supplied in sealed envelopes to be opened by the investigator at time of inclusion. Patients received the treatment from the investigator on an open basis.
Due to the relatively high patient drop-out rate of this study, analysis was conducted on two different datasets: one with an imputation of missing values according to the last observation carried forward (LOCF) methodology and the other in the absence of data imputation, i.e. the observed cases (OC). Analysis for efficacy was performed on a modified Intention-To-Treat (ITT) population and Per Protocol (PP) population. […] The PP population was defined as a subgroup of the ITT population that in addition had presented no major protocol deviations and had completed at least 28 days of treatment exposure.

[1] = Total population (n = 40), ITT population
[2] = W 24, extension phase, ITT population, n = 4
[3] = W 24, extension phase, ITT population, n = 7
[4] = W 36, extension phase, ITT population, n = 5
[5] = W 36, extension phase, ITT population, n = 9
[6] = W 36, extension phase, ITT population, n = 12
[7] = W 48, extension phase, ITT population, n = 6
[8] = W 48, extension phase, ITT population, n = 8
[9] = W 48, extension phase, ITT population, n = 9
[10] = W 60, extension phase, ITT population, n = 7
[11] = W 60, extension phase, ITT population, n = 8

Cc1ccc(NC(=O)c2ccc(CN3CCN(C)CC3)cc2)cc1Nc1nc(-c2cccnc2)cs1 [masitinib, 4-(4-methylpiperazin-1-ylmethyl)-N-[4-methyl-3-(4-pyridin-3ylthiazol-2-ylamino)phenyl]benzamide]
Non-responders (failed to reach ACR20) after dose augmentation (3 mg/kg/day group, 12 patients augmented at weeks 4 or 8): 42% | Patients with improved response after dose augmentation (3 mg/kg/day group, 12 patients augmented at weeks 4 or 8, initial 12-week phase): 58% | Dose response analyses: dose level (6 mg/kg/day): most potent | Highest response rate for the ACR50 threshold by dose at first response (5/15, dosage not given): 33.3% | Time to first response ACR20, Mean ± SD [1]: 46.3 ± 22.4 days | Time to first response ACR20, Median [1]: 35.0 days | Time to first response ACR20, Min-Max [1]: 28.0 to 105.0 days | Time to first response ACR50, Mean ± SD [1]: 89.1 ± 58.2 days | Time to first response ACR50, Median [1]: 84.0 days | Time to first response ACR50, Min-Max [1]: 28.0 to 217.0 days | DAS28 <2.6, patients (W 12, ITT population, n = 24): 1 (4.%) | DAS28 Mean ± SD (W 12, ITT population, n = 24): 4.6 ± 1.3 | DAS28 Median (W 12, ITT population, n = 24): 4.4 | DAS28 Min-Max (W 12, ITT population, n = 24): 0.5-7.0 | DAS28 ≦3.2, patients (W 12, ITT population, n = 24): 1 (4%) | ACR20, patients reaching level (W 12, ITT population, n = 27): 15 (56%) | ACR50, patients reaching level (W 12, ITT population, n = 27): 9 (33%) | ACR70, patients reaching level (W 12, ITT population, n = 27): 3 (11%) | ACR90, patients reaching level (W 12, ITT population, n = 27): 0 (0%) | ACRn Mean ± SD (W 12, ITT population, n = 27): 31.6 ± 33.5 | ACRn Median (W 12, ITT population, n = 27): 42.9 | ACRn Min-Max (W 12, ITT population, n = 27): −40.0-87.5 | CRP 0% < Improvement ≦25%, patients (W 12, ITT population, n = 28): 5 (18%) | CRP 25% < Improvement ≦50%, patients (W 12, ITT population, n = 28): 3 (11%) | CRP Deterioration, patients (W 12, ITT population, n = 28): 3 (11%) | CRP Improvement >50%, patients (W 12, ITT population, n = 28): 14 (50%) | CRP Stable, patients (W 12, ITT population, n = 28): 3 (11%) | DAS28 <2.6, patients [2]: 0 (0%) | DAS28 Mean ± SD [2]: 5.2 ± 1.7 | DAS28 Median [2]: 4.9 | DAS28 Min-Max [2]: 3.6-7.5 | DAS28 ≦3.2, patients [2]: 0 (0%) | ACR20, patients reaching level [3]: 6 (86%) | ACR50, patients reaching level [3]: 2 (27%) | ACR70, patients reaching level [3]: 1 (14%) | ACR90, patients reaching level [3]: 0 (0%) | ACRn Mean ± SD [3]: 36.0 ± 29.0 | ACRn Median [3]: 40.7 | ACRn Min-Max [3]: −16.7-73.0 | CRP 0% < Improvement ≦25%, patients [3]: 1 (14%) | CRP 25% < Improvement ≦50%, patients [3]: 0 (0%) | CRP Deterioration, patients [3]: 0 (0%) | CRP Improvement >50%, patients [3]: 5 (71%) | CRP Stable, patients [3]: 1 (14%) | DAS28 <2.6, patients [4]: 1 (20%) | DAS28 Mean ± SD [4]: 4.4 ± 1.9 | DAS28 Median [4]: 4.1 | DAS28 Min-Max [4]: 2.3-7.5 | DAS28 ≦3.2, patients [4]: 1 (20%) | ACR20, patients reaching level [5]: 7 (78%) | ACR50, patients reaching level [5]: 4 (44%) | ACR70, patients reaching level [5]: 2 (22%) | ACR90, patients reaching level [5]: 1 (11%) | ACRn Mean ± SD [5]: 45.9 ± 32.3 | ACRn Median [5]: 45.5 | ACRn Min-Max [5]: −3.8-93.3 | CRP 0% < Improvement ≦25%, patients [6]: 1 (8%) | CRP 25% < Improvement ≦50%, patients [6]: 1 (8%) | CRP Deterioration, patients [6]: 0 (0%) | CRP Improvement >50%, patients [6]: 9 (75%) | CRP Stable, patients [6]: 1 (8%) | DAS28 <2.6, patients [7]: 0 (0%) | DAS28 Mean ± SD [7]: 4.7 ± 2.1 | DAS28 Median [7]: 4.4 | DAS28 Min-Max [7]: 2.7-8.7 | DAS28 ≦3.2, patients [7]: 2 (33%) | ACR20, patients reaching level [8]: 5 (63%) | ACR50, patients reaching level [8]: 3 (38%) | ACR70, patients reaching level [8]: 1 (13%) | ACR90, patients reaching level [8]: 0 (0%) | ACRn Mean ± SD [8]: 30.9 ± 36.7 | ACRn Median [8]: 40.0 | ACRn Min-Max [8]: −20.0-70.9 | CRP 0% < Improvement ≦25%, patients [9]: 1 (11%) | CRP 25% < Improvement ≦50%, patients [9]: 0 (0%) | CRP Deterioration, patients [9]: 2 (22%) | CRP Improvement >50%, patients [9]: 6 (67%) | CRP Stable, patients [9]: 0 (0%) | CRP 0% < Improvement ≦25%, patients [10]: 1 (14%) | CRP 25% < Improvement ≦50%, patients [10]: 3 (43%) | CRP Deterioration, patients [10]: 0 (0%) | CRP Improvement >50%, patients [10]: 3 (43%) | CRP Stable, patients [10]: 0 (0%) | DAS28 <2.6, patients [10]: 4 (57%) | DAS28 Mean ± SD [10]: 3.3 ± 1.5 | DAS28 Median [10]: 2.6 | DAS28 Min-Max [10]: 1.7-5.3 | DAS28 ≦3.2, patients [10]: 4 (57%) | ACR20, patients reaching level [11]: 6 (75%) | ACR50, patients reaching level [11]: 6 (75%) | ACR70, patients reaching level [11]: 3 (38%) | ACR90, patients reaching level [11]: 2 (25%) | ACRn Mean ± SD [11]: 58.3 ± 31.4
